Laboratory results taken from the NIST ThermoML archive (doi:10.1016/j.jct.2006.05.008).

Experiment: molar heat capacity at constant pressure; wn = mass fraction of the nth substance listed
Conditions: Small (less than 1 g) adiabatic calorimetry

CCCCn1cc[n+](C)c1.[Br-] [1-butyl-3-methylimidazolium bromide] + O
Conditions	molar heat capacity at constant pressure [J/K/mol]
152.96 K, 101.3 kPa, Glass, w2 = 0.00482	151.04
155.53 K, 101.3 kPa, Glass, w2 = 0.00482	152.59
158.09 K, 101.3 kPa, Glass, w2 = 0.00482	154.17
160.66 K, 101.3 kPa, Glass, w2 = 0.00482	155.77
163.24 K, 101.3 kPa, Glass, w2 = 0.00482	157.38
165.81 K, 101.3 kPa, Glass, w2 = 0.00482	158.96
168.39 K, 101.3 kPa, Glass, w2 = 0.00482	160.57
170.97 K, 101.3 kPa, Glass, w2 = 0.00482	162.11
173.55 K, 101.3 kPa, Glass, w2 = 0.00482	163.78
176.13 K, 101.3 kPa, Glass, w2 = 0.00482	165.35
178.71 K, 101.3 kPa, Glass, w2 = 0.00482	167.03
181.3 K, 101.3 kPa, Glass, w2 = 0.00482	168.7
183.89 K, 101.3 kPa, Glass, w2 = 0.00482	170.41
186.48 K, 101.3 kPa, Glass, w2 = 0.00482	172.04
189.06 K, 101.3 kPa, Glass, w2 = 0.00482	173.78
191.65 K, 101.3 kPa, Glass, w2 = 0.00482	175.6
194.25 K, 101.3 kPa, Glass, w2 = 0.00482	177.44
196.84 K, 101.3 kPa, Glass, w2 = 0.00482	179.31
199.44 K, 101.3 kPa, Glass, w2 = 0.00482	181.34
201.78 K, 101.3 kPa, Glass, w2 = 0.00482	183.39
203.87 K, 101.3 kPa, Glass, w2 = 0.00482	185.23
205.95 K, 101.3 kPa, Glass, w2 = 0.00482	187.63
208.05 K, 101.3 kPa, Glass, w2 = 0.00482	190.57
209.63 K, 101 kPa, Liquid, w2 = 0.0495	190.63
210.13 K, 101.3 kPa, Glass, w2 = 0.00482	194.11
211.86 K, 101 kPa, Liquid, w2 = 0.0495	190.98
212.18 K, 101.3 kPa, Glass, w2 = 0.00482	199.24
213.95 K, 101 kPa, Liquid, w2 = 0.0495	191.32
214.19 K, 101.3 kPa, Glass, w2 = 0.00482	209.18
216.04 K, 101 kPa, Liquid, w2 = 0.0495	191.7
216.1 K, 101.3 kPa, Glass, w2 = 0.00482	229.46
218.13 K, 101 kPa, Liquid, w2 = 0.0495	191.97

Crystal
Conditions	molar heat capacity at constant pressure [J/K/mol]
153.47 K, w2 = 0.00482	140.32
154 K, w2 = 0.0495	102.07
154.55 K, w2 = 0.0169	127.32
154.86 K, w2 = 0.0051	140.76
156.05 K, w2 = 0.00482	141.71
156.62 K, w2 = 0.0169	128.46
156.86 K, w2 = 0.0495	103.54
157.46 K, w2 = 0.0051	142.19
158.64 K, w2 = 0.00482	143.05
158.69 K, w2 = 0.0169	129.54
159.72 K, w2 = 0.0495	105.03
160.06 K, w2 = 0.0051	143.6
160.76 K, w2 = 0.0169	130.58
161.22 K, w2 = 0.00482	144.52
162.58 K, w2 = 0.0495	107.12
162.67 K, w2 = 0.0051	145.04
162.83 K, w2 = 0.0169	131.81
163.81 K, w2 = 0.00482	145.98
164.91 K, w2 = 0.0169	133.35
165.35 K, w2 = 0.0051	146.89
165.42 K, w2 = 0.0495	110.43
166.4 K, w2 = 0.00482	147.42
166.98 K, w2 = 0.0169	135.28
167.95 K, w2 = 0.0051	148.6
168.2 K, w2 = 0.0495	119.37
168.99 K, w2 = 0.00482	148.99
169.05 K, w2 = 0.0169	138.58
170.54 K, w2 = 0.0051	150.98
170.84 K, w2 = 0.0495	133.87
171.1 K, w2 = 0.0169	143.34
171.58 K, w2 = 0.00482	150.69
173.12 K, w2 = 0.0051	153.72
173.15 K, w2 = 0.0169	146.3
173.43 K, w2 = 0.0495	137.89
174.17 K, w2 = 0.00482	152.56
175.22 K, w2 = 0.0169	148.17
175.7 K, w2 = 0.0051	155.58
176.02 K, w2 = 0.0495	137.25
176.76 K, w2 = 0.00482	154.52
177.3 K, w2 = 0.0169	149.6
178.27 K, w2 = 0.0051	157.05
178.63 K, w2 = 0.0495	136.83
179.35 K, w2 = 0.00482	156.32
179.39 K, w2 = 0.0169	150.75
180.85 K, w2 = 0.0051	158.5
181.26 K, w2 = 0.0495	136.85
181.47 K, w2 = 0.0169	151.73
181.94 K, w2 = 0.00482	158.09
182.13 K, w2 = 0.0495	137.03
183.43 K, w2 = 0.0051	159.93
183.55 K, w2 = 0.0169	152.69
183.89 K, w2 = 0.0495	137.25
184.55 K, w2 = 0.00482	159.97
184.8 K, w2 = 0.0495	137.33
185.63 K, w2 = 0.0169	153.62
186 K, w2 = 0.0051	161.23
186.52 K, w2 = 0.0495	137.88
187.15 K, w2 = 0.00482	161.48
187.43 K, w2 = 0.0495	137.82
187.72 K, w2 = 0.0169	154.64
188.57 K, w2 = 0.0051	162.67
189.16 K, w2 = 0.0495	138.51
189.75 K, w2 = 0.00482	163.1
189.81 K, w2 = 0.0169	155.65
190.07 K, w2 = 0.0495	138.44
191.13 K, w2 = 0.0051	164.05
191.82 K, w2 = 0.0495	139.23
191.89 K, w2 = 0.0169	156.63
192.35 K, w2 = 0.00482	164.66
192.72 K, w2 = 0.0495	139.22
193.7 K, w2 = 0.0051	165.5
193.98 K, w2 = 0.0169	157.56
194.48 K, w2 = 0.0495	139.88
194.95 K, w2 = 0.00482	166.1
195.38 K, w2 = 0.0495	139.99
196.08 K, w2 = 0.0169	158.61
196.26 K, w2 = 0.0051	166.89
197.16 K, w2 = 0.0495	140.43
197.55 K, w2 = 0.00482	167.55
198.05 K, w2 = 0.0495	140.75
198.17 K, w2 = 0.0169	159.59
198.82 K, w2 = 0.0051	168.3
200.15 K, w2 = 0.00482	169
200.26 K, w2 = 0.0169	160.53
200.73 K, w2 = 0.0495	141.5
201.38 K, w2 = 0.0051	169.66
202.36 K, w2 = 0.0169	161.49
202.75 K, w2 = 0.00482	170.67
203.43 K, w2 = 0.0495	142.32
203.93 K, w2 = 0.0051	171.24
204.46 K, w2 = 0.0169	162.5
205.36 K, w2 = 0.00482	172.16
206.48 K, w2 = 0.0051	172.9
206.55 K, w2 = 0.0169	163.54
207.97 K, w2 = 0.00482	173.71
208.05 K, w2 = 0.0495	144.92
208.65 K, w2 = 0.0169	164.5
209.03 K, w2 = 0.0051	175.02
210.59 K, w2 = 0.00482	175.21
210.75 K, w2 = 0.0495	151.13
210.77 K, w2 = 0.0169	165.47
211.56 K, w2 = 0.0051	176.7
212.87 K, w2 = 0.0169	166.55
213.21 K, w2 = 0.00482	176.73
213.38 K, w2 = 0.0495	150.25
214.1 K, w2 = 0.0051	177.3
214.97 K, w2 = 0.0169	167.69
215.83 K, w2 = 0.00482	178.25
215.99 K, w2 = 0.0495	154.67
216.64 K, w2 = 0.0051	178.89
216.82 K, w2 = 0.00482	178.65
217.07 K, w2 = 0.0169	169.05
217.64 K, w2 = 0.0169	168.8
